Earlier results, collected in article PMC8696521 (RSC Advances, 2021).
Where two headings read alike, the source gives them in different places.

What was measured:
ACE = settings: for Category of ACEI peptide by interaction with ACE: reduced IC50 values following incubation with ACE
[1] = peptide from P. fucata muscle

In the case of LSGYGP, the ACE inhibition pattern (ACE) is listed as “noncompetitive”.

In the case of IKPVQ, the “Category of ACEI peptide by interaction with ACE” value (ACE) is listed as “pro-drug substrates”.

In the case of WVYY, the ACE inhibition pattern (ACE; hemp seed protein hydrolysate peptides) is listed as “mixed-mode type of ACE inhibition”.

For VVSLSIPR, the ACE inhibition pattern (ACE) is listed as “competitive inhibitors”.

In the case of GVGSPY, the “ACEI IC50” value (ACE; from pearl oyster shell protein hydrolysate) is given as 5.82 µg/mL.

In the case of IKPVA, the “Category of ACEI peptide by interaction with ACE” value (ACE) is listed as “pro-drug substrates”.

In the case of GAGLPGKRER, the Antioxidant activity [1] is listed as “strong antioxidant activity”.

For FHAPWK, the ACE inhibition pattern (ACE) is listed as “competitive inhibitors”.

In the case of LIVT, the IC50 (ACE; read-out: ACEI IC50) is given as 110 nM.
